We go through one molecule from US7928060B2, “Amylin family polypeptide-6 (AFP-6) analogs and methods of making and using them” (Amylin Pharmaceuticals, Inc., priority 2004, dated 2011).

Assay [1] deals with Harlan Sprague Dawley rats. Briefly: gastric emptying rate in conscious rats (3H-glucose gavage). The assay is classed as in vivo, rat. Particulars: subcutaneous. The procedure: Male Harlan Sprague Dawley® rats, 237-317 g, were housed with a 12:12 hour light:dark cycle. The experiment was carried out during the light cycle. At time=0 min, test peptide (amylin or AFP-6) at 6.3, 20, 63, 200, 632, and 1122 μg/kg or vehicle was injected (subcutaneous) into conscious rats (n=6/group). At t=5 min, a solution of 1 mL sterile water containing 5 μCi D-[3-^3H] glucose was gavaged by oropharyngeal tube to conscious rats. Blood samples were collected 30 min after gavage and assayed for counts per minute (CPM) in plasma. 20% benzocaine liquid topical anesthetic was used to eliminate pain during sampling. (Gedulin et al. (1995) Gastroenterology 108:A604). The appearance of counts in plasma is a reflection of the rate of gastric emptying. Significance of difference (p<0.05) was determined by ANOVA.

Assay [2] has as its system adrenomedullin receptor. To be noted: bovine studies; cited from earlier work.
Assay [3] has as its target adrenomedullin receptor (Homo sapiens, UniProt O60895+Q16602). The assay can be described thus: cAMP production in HUVECs (AlphaScreen). Format: cell-based. Details: tested for bioactivity in HUVECs that contain the adrenomedullin receptor; endogenous in cells; host or cells: HUVEC. (In general: Cyclic AMP is a second messenger, typically raised through Gs and lowered through Gi signalling.)

Sequence of adrenomedullin receptor (Homo sapiens, UniProt O60895+Q16602) (Q16602 23-461): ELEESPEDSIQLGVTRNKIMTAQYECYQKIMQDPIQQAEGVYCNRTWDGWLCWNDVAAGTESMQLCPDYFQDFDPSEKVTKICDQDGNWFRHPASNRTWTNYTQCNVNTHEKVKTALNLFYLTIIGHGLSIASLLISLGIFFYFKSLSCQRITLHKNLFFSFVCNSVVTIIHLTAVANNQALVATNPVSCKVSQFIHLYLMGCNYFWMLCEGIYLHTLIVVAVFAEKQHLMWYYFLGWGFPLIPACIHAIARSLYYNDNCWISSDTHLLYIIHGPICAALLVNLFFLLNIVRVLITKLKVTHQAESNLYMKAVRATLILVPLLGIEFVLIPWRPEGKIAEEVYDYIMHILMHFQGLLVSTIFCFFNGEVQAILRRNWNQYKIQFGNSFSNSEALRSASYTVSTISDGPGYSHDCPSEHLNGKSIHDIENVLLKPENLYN
Sequence of adrenomedullin receptor (Homo sapiens, UniProt O60895+Q16602) (O60895 43-175): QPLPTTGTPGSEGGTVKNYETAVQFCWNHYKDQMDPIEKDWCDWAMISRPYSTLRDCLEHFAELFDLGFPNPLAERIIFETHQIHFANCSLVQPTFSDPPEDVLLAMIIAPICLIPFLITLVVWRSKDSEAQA

In the case of `CSCC[C@H](NC(=O)[C@H](CC(C)C)NC(=O)[C@H](CCC(N)=O)NC(=O)[C@H](Cc1c[nH]c2ccccc12)NC(=O)[C@H](CC(C)C)NC(=O)[C@H](CCCNC(=N)N)NC(=O)[C@H](Cc1c[nH]cn1)NC(=O)[C@H](CO)NC(=O)[C@H](CC(C)C)NC(=O)[C@H](CC(N)=O)NC(=O)[C@H](CCC(N)=O)NC(=O)[C@@H](NC(=O)[C@H](CCC(N)=O)NC(=O)[C@@H]1CSSC[C@H](NC(=O)CNC(=O)[C@@H](NC(=O)[C@H](CCCNC(=N)N)NC(=O)[C@H](CC(C)C)NC(=O)[C@H](CC(C)C)NC(=O)[C@H](CCC(N)=O)NC(=O)[C@H](C)NC(=O)[C@H](CCC(N)=O)NC(=O)[C@@H](N)[C@@H](C)O)C(C)C)C(=O)N[C@@H](C(C)C)C(=O)N[C@@H](CC(C)C)C(=O)NCC(=O)N[C@@H]([C@@H](C)O)C(=O)N1)C(C)C)C(=O)NCC(=O)N1CCC[C@H]1C(=O)N[C@@H](C)C(=O)NCC(=O)N[C@@H](CCCNC(=N)N)C(=O)N[C@@H](CCC(N)=O)C(=O)N[C@@H](CC(=O)O)C(=O)N[C@@H](CO)C(=O)N[C@@H](C)C(=O)N1CCC[C@H]1C(=O)N[C@H](C(=O)N[C@@H](CC(=O)O)C(=O)N1CCC[C@H]1C(=O)N[C@@H](CO)C(=O)N[C@@H](CO)C(=O)N1CCC[C@H]1C(=O)N[C@@H](Cc1c[nH]cn1)C(=O)N[C@@H](CO)C(=O)N[C@@H](Cc1ccc(O)cc1)C(N)=O)C(C)C` [SEQ ID NO: 1], in assay [1], the “ED50, inhibition of gastric emptying” value came out at 0.049 mg/kg. Further, in assay [2], the “binding at the adrenomedullin receptor” value is 1 to 5 nM. Also, the “increase of cAMP levels” value in assay [3] (HUVECs, 1 μM and 10 nM) was “active in increasing cAMP levels”. Further, the “rank order of potency in HUVECs” value in assay [3] (cAMP, FIG. 9) was “adrenomedullin >AFP-6>>CGRP alpha”.
